The melting point is the temperature of the solid-liquid transition.

Each structure is given as a SMILES string. Bounds are passed on as bounds.

`COc1ccccc1NC(=O)Nc1nc(Nc2ccccc2-c2ccccc2)nc(N(CCC(=O)O)Cc2ccc(-c3ccccc3)cc2)n1` gave a melting point of 144 to 147 °C.
To `Cn1nc(-c2c(Cl)cncc2Cl)nc1Cc1ccc(Cl)cc1` belongs 142 to 143 °C; to `CC1=C(Cl)CC2C(=O)OC(=O)C2C1` (centres undefined), 76 to 78 °C.
To `Cn1cc(C(=O)NCc2ccc(Cl)cc2)c(=O)c2cc(CC3CCOCC3)cc(C#CCO)c21` belongs 166 to 168 °C; to `COC(=O)c1sc(Nc2ccc(Cl)cc2)nc1C`, 172 to 173 °C; to `CCC12CCC3=C(CCc4cc(OC)ccc43)C1CCC21OCCO1` (centres undefined), 135 to 137 °C.
With `CN1CCC(c2c(O)cc(O)c3c(=O)cc(Oc4ccccc4Cl)oc23)C(O)C1` (centres undefined) the figure was 105 °C.
For `CNC1NC(=O)N(c2ccccc2)C(=O)N1N` (centres undefined), the melting point is 242 to 244 °C.
With `C#CCOc1ccc2c(C(=O)OCC)cc(=O)oc2c1` the figure was 230 °C; with `COc1nc(C(F)(F)F)cc(=O)n1-c1cc(OCCON=C(C)C)c(Br)cc1F`, 149 to 150 °C.
`CCCCNC(=O)Oc1ccc(C(O)(CC)c2cccc(C(F)(F)F)c2)c(OC(=O)NCCCC)c1` (centres undefined) came in with a melting point of 110 to 111 °C.
To `O=C(O)c1cccc(CNC2CC3CC2C2CCCC32)c1` (centres undefined) belongs 258 to 261 °C.
Turning to `CCCn1c(=O)c2c(NC)n[nH]c2n(Cc2ccc(F)cc2)c1=O`, the melting point lay in the range of 262 to 265 °C.
With `Nc1ncc2cc(-c3ccccc3)c(O)nc2n1` the figure was 390 to 395 °C; with `COc1ccc(N2CCN(c3c(C)c(C)c4c(c3C)C(CN3CCCC3)C(C)(C)O4)CC2)cc1` (centres undefined), 94 to 96 °C.
With `CS(=O)c1n[nH]c2ccc(Cl)cc2c1=O` (centres undefined) the figure was 267 to 272 °C.
With `CC1(C)COC1(Cn1cncn1)c1ccc(F)cc1F` (centres undefined) the figure was 76 to 78 °C; with `CCC1C(=O)c2c(cc(O)c(Cl)c2Cl)C1c1ccccc1` (centres undefined), 220 to 222 °C.
For `COc1ccc(-c2ccc(C(N)=O)cc2)cc1-c1ccc2nonc2c1`, the melting point fell in the range of 235 to 255 °C.
With `CCCCOc1ccc(CCCO)c(Oc2ncc(C(F)(F)F)cc2Cl)c1` the figure was 72.6 to 72.7 °C; with `CCCCCCCCNC(=O)C=CSC(C(=O)c1ccccc1)C(=O)c1cccn1C` (centres undefined), 131 to 132 °C; with `CCC1(CC)NC(=O)Oc2ccccc21`, 160 to 162 °C.
In the case of `COc1ccccc1N1CCN(CCCNc2ncc3cc(-c4c(Cl)cccc4Cl)c(=O)n(C)c3n2)CC1`, the melting point was 187 to 188 °C.
As for `C[C@H]1CCCC(C)(C)[C@@H]1C(=O)c1ccc(C#N)c(C(F)(F)F)c1`, the melting point fell in the range of 81.6 to 82.4 °C.
Turning to `CC(CC(=O)Nc1cc(-c2ccnc3c(C(=O)c4cccs4)cnn23)ccc1F)C(F)(F)F` (centres undefined), the melting point fell in the range of 185 to 186 °C.
On to `Nc1ncccc1C(=O)NCC1CCN(C[C@H]2COc3ccc(Br)cc3O2)CC1`, for which the melting point fell in the range of 158 to 160 °C.
To `ClCc1coc(-c2ccc3ccccc3c2)n1` belongs 116 to 117 °C; to `CC(C)OC(=O)C1=C(O)c2ccccc2S(=O)(=O)N1C`, 102 to 103 °C.
The compound `CCOC1CN2CCC1CC2` (centres undefined) came in with a melting point of 96 to 98 °C.
With `Cc1oc(-c2ccc(C(F)(F)F)cc2)nc1-c1cccc(-c2ccc(O)cc2)c1` the figure was 133 to 135 °C; with `CCCCn1c(=O)c2c(NC)n[nH]c2n(CCCl)c1=O`, 270 to 272 °C.
With `CC(C)CC(NC(=O)O)C(=O)NC(C)(C)C#N` (centres undefined) the figure was 166 to 168 °C; with `Cc1nc2cnccc2n1-c1ccc(C2=Nc3ccccc3NC(=O)C2)cn1`, 208 to 210 °C; with `C=Cc1ccc(C2=CC(=O)NC2=O)cc1`, 124 to 127 °C.
As for `CCOC(=O)N1CCN(C2=Nc3ccccc3Sc3ccc(Cl)cc32)CC1`, the melting point lay within 96.5 to 97.5 °C.
`CS(=O)(=O)Nc1cc2oc(C(=O)O)cc(=O)c2cc1Oc1ccccc1` had a melting point of over 250 °C.
To `Cc1csc2ccc3c(c4c(n3CCCN(C)C)CCNC4)c12` belongs 92 °C.
With `O=C(O)CCN1C(=O)c2cccc(NC(=O)c3ccc(Cl)s3)c2C1=O` the figure was 194 °C; with `CCCC[C@@](C)(O)C(=O)O`, 67.8 to 67.9 °C; with `COC(OC)c1ccc(C=C2C(=O)C3(C)CCC2C3(C)C)cc1` (centres undefined), 98 °C.
To `CCCCC(O)CNCCCCCCCCCCNCC(O)CCCC` (centres undefined) belongs 127 to 137 °C; to `C=C(C)C(=O)Oc1ccc(S(=O)(=O)ON=C(C#N)c2cccs2)cc1`, 165 to 166 °C.
`CC1(C)CC(=O)C=C(OC(=O)c2cccc3nnsc23)C1` yielded a melting point of 131 to 133 °C.
To `O=C1C(CCO)Oc2ccccc2N1Cc1cccc([N+](=O)[O-])c1` (centres undefined) belongs 128 to 130 °C.
With `CC1(C)CC(OC(=O)CCC(=O)OC2CC(C)(C)NC(C)(C)C2)CC(C)(C)N1` the figure was 118 °C; with `CCCN(Sc1nc2ccccc2s1)C(C)(C)C`, 55 to 56 °C.
To `CNc1cc(Cl)c(CO)c(Cl)c1` belongs 108 to 111 °C; to `O=C1CN(c2ccc(Cc3ccccc3)cc2)C(=S)N1c1ccc([N+](=O)[O-])cc1`, 209 °C.
`CCOC(=O)COc1ccc(-c2cc(O)c(SCCc3ccccc3)c(=O)o2)cc1` returned a melting point of 169 to 171 °C.
With `Cc1cc(OCc2coc(/C=C/c3ccc(S(=O)C(F)(F)F)cc3)n2)ccc1CCCCc1c[nH]nn1` (centres undefined) the figure was 113 to 114 °C; with `Cc1cc(Cc2cnc(Cl)nc2Cl)c2cccnc2c1N`, 209 to 211 °C.
With `CC[C@@H](c1ccc(F)cc1)N(Cc1ccc(C(=O)OC)cc1)S(=O)(=O)c1ccc(Cl)cc1` the figure was 73 to 75 °C; with `COc1ccc(C2CN(C)Cc3c(N)cccc32)cc1OC` (centres undefined), 143 to 144 °C.
With `CCOc1ccc(S(=O)(=O)N2CCN(C)CC2)cc1C(=O)O` the figure was 201 °C; with `CC1=C(C(=O)O)C(c2cccc([N+](=O)[O-])c2)C(C(=O)OCCC#N)=C(C)N1` (centres undefined), 131 to 132 °C.
Take `Nc1ccc(C23CC2C(=O)NC3=O)cc1` (centres undefined): the melting point lay in the range of 183 to 185 °C.
With `CCOc1ccc2[nH]c(=O)n(C3CCCCC3)c2c1` the figure was 203 °C; with `COc1ccc(C=CC=C(C#N)C#N)cc1`, 160 °C; with `N#Cc1ccc(N(Cc2ccc(OS(N)(=O)=O)cc2)n2cnnc2)cc1-c1ccco1`, 177 to 178 °C.
With `COCc1cn(-c2cccc(C(F)(F)F)c2)nc(C(C)=O)c1=O` the figure was 141 to 143 °C; with `COC(=O)c1cn(-c2ccccc2Oc2ccc(C)cc2O)nn1`, 153 to 155 °C; with `COc1ccc2c(c1)c(C=O)c(C)n2C(=O)c1ccc(Cl)cc1`, 150 to 152 °C.
With `COc1cccc([C@H]2O[C@H](CC(=O)Nc3cccc(CCC(=O)O)c3)C(=O)N(CC(C)(C)CO)c3ccc(Cl)cc32)c1OC` the figure was 141 to 144 °C; with `COc1nc2cc(C)c(Cl)c(N)c2nc1OC`, 169 to 170 °C; with `CN(C(CCN1C(=O)c2ccccc2C1=O)C(=O)NO)S(=O)(=O)c1ccc(Oc2ccc(F)cc2)cc1` (centres undefined), 100 to 101 °C.
The compound `OCC(O)Cc1nccn1CCCc1cccc(OCc2coc(/C=C/c3ccc(F)cc3F)n2)c1` (centres undefined) had a melting point of 92 to 94 °C.
For the compound `CCC1(CC)COP(=O)(Cc2ccc(N)cc2)OC1`, the melting point was in the range of 128 to 129 °C.
For `C[C@H](NC(=O)c1ccc[nH]1)C(=O)NC(C=O)CC(=O)O` (some centres undefined), the melting point was in the range of 96 to 100 °C.
With `CCOC(=O)C1=C(C)NC(N)=C(C(=O)OCCOC)C1c1cccc([N+](=O)[O-])c1` (centres undefined) the figure was 174 °C.
With `Cc1ccc(CC2CNC(=O)O2)cc1` (centres undefined) the figure was 144 to 146 °C.
With `COC1=C(OC)C(=O)C(CCCCCCCCCCCCCCCCCCO)=C(C)C1=O` the figure was 81 °C; with `COc1ccccc1CNC1CCN(C2CCN(C(=O)c3cc(C)cc(C)c3)C(Cc3ccccc3)C2)CC1` (centres undefined), 71.2 °C.
`O=C(c1ccccc1)c1cnn2c(-c3ccccc3)ccnc12` had a melting point of 163 to 165 °C.
`CC(=O)Nc1cc(F)ccc1SCC#N` showed a melting point of 113 to 115 °C.
To `CC(CNC(=O)OC(C)(C)C)n1nnnc1S` (centres undefined) belongs 156 to 158 °C; to `N#Cc1cnc2cc3ccc(O)cc3cc2c1Nc1ccc(Cl)cc1Cl`, over 300 °C.
For `COc1ccc2nc(NC(=O)C(CC3CCCC3)c3ccc(S(=O)(=O)Nc4cccnc4)cc3)sc2n1` (centres undefined), the melting point lay within 125 to 127 °C.
With `COc1ccc(-c2cc(C)nc3ccccc23)cc1` the figure was 101 °C.
On to `NC(=O)Cc1cc(=O)oc2cc(OCc3cccc(Cl)c3)ccc12`, for which the melting point was 185 to 186 °C.
With `COC(=O)c1ccc(-c2cnc3[nH]c(=O)n(CC4CCCCC4)c3n2)cc1` the figure was 253 to 255 °C.
To `COC(=O)c1cccc(C(=O)Nc2ccc(-n3nc(C(F)(F)F)cc3C(F)(F)F)cc2)c1` belongs 174 to 175 °C; to `FC(F)(F)c1nc(Cl)c2cc(I)ccc2n1`, 145 to 146 °C.
To `CCCc1nc(C(C)(C)O)c(C(=O)OC2OC(=O)c3ccccc32)n1Cc1ccc(-c2ccccc2C(=O)O)cc1` (centres undefined) belongs 142 to 144 °C; to `O=C1CC(ON(Cc2ccccc2)Cc2ccccc2)C(=O)N1C1CCCCC1` (centres undefined), 75 to 77 °C; to `O=C(Nc1ccc2[nH]c(C(F)(F)F)nc2c1)NC12CC3CC(CC(C3)C1)C2`, 189 to 192 °C.
For the compound `Cc1ccc(P(c2ccc(C)cc2)c2cccc3c2-c2c(cccc2P(c2ccc(C)cc2)c2ccc(C)cc2)OCCCO3)cc1`, the melting point was in the range of 108 to 110 °C.
With `O=S1(=O)N=C(NC2(CO)CCCC2)Nc2cc(Cl)sc21` the figure was 213 to 214 °C.
With `CCCCCS(=O)(=O)NC(=O)c1ccc2nc(C)n(Cc3ccc(N(C)CC)cc3Cl)c2n1` the figure was 148 to 149 °C; with `O=c1[nH]cc(-c2cc(-c3cnc4ccccc4c3)ccn2)n1-c1ccc(N2CCNCC2)c(C(F)(F)F)c1`, 155 °C.

Source of the values: a melting point compilation (Tetko et al.; mined from patent text by program, amines drawn as free bases though some values may be those of a salt).
